According to ChEMBL document CHEMBL3865818, “4,5-Diaryl-3H-1,2-dithiole-3-thiones and related compounds as combretastatin A-4/oltipraz hybrids: Synthesis, molecular modelling and evaluation as antiproliferative agents and inhibitors of tubulin” (Eur J Med Chem, 2016):

Assays:
Type in all cases: functional
[1] = Cell cycle arrest in human KB cells assessed as accumulation at SubG1-phase at 0.05 uM measured after 12 hrs by propidium iodide staining-based flow cytometry (reference value: 1.23%)
[2] = Cell cycle arrest in human KB cells assessed as accumulation at SubG1-phase at 0.05 uM measured after 36 hrs by propidium iodide staining-based flow cytometry (reference value: 0.63%)
[3] = Cell cycle arrest in human KB cells assessed as accumulation at G0/G1-phase at 0.05 uM measured after 36 hrs by propidium iodide staining-based flow cytometry (reference value: 51.51%)
[4] = Cell cycle arrest in human KB cells assessed as accumulation at SubG1-phase at 0.05 uM measured after 60 hrs by propidium iodide staining-based flow cytometry (reference value: 1.24%)
[5] = Cell cycle arrest in human KB cells assessed as accumulation at G0/G1-phase at 0.1 uM measured after 12 hrs by propidium iodide staining-based flow cytometry (reference value: 48.26%)
[6] = Cell cycle arrest in human KB cells assessed as accumulation at SubG1-phase at 0.1 uM measured after 24 hrs by propidium iodide staining-based flow cytometry (reference value: 0.76%)
[7] = Cell cycle arrest in human KB cells assessed as accumulation at G0/G1-phase at 0.1 uM measured after 36 hrs by propidium iodide staining-based flow cytometry (reference value: 51.51%)
[8] = Cell cycle arrest in human KB cells assessed as accumulation at S-phase at 0.1 uM measured after 36 hrs by propidium iodide staining-based flow cytometry (reference value: 16.51%)
[9] = Cell cycle arrest in human KB cells assessed as accumulation at G2/M-phase at 0.2 uM measured after 24 hrs by propidium iodide staining-based flow cytometry (reference value: 28.84%)
[10] = Cell cycle arrest in human KB cells assessed as accumulation at S-phase at 0.2 uM measured after 60 hrs by propidium iodide staining-based flow cytometry (reference value: 12.66%)
[11] = Cell cycle arrest in human KB cells assessed as accumulation at G2/M-phase measured after 36 hrs by propidium iodide staining-based flow cytometry (reference value: 27.34%)
[12] = Cell cycle arrest in human KB cells assessed as accumulation at G0/G1-phase measured after 48 hrs by propidium iodide staining-based flow cytometry (reference value: 58.26%)
[13] = Cell cycle arrest in human KB cells assessed as accumulation at S-phase measured after 60 hrs by propidium iodide staining-based flow cytometry (reference value: 12.66%)

COc1ccc(-c2ssc(=O)c2-c2cc(OC)c(OC)c(OC)c2)cc1N
Activity [1]: 7.09% | Activity [2]: 10.1% | Activity [3]: 50.3% | Activity [4]: 34.4% | Activity [5]: 8.66% | Activity [6]: 16% | Activity [7]: 25.5% | Activity [8]: 14.5% | Activity [9]: 55.8% | Activity [10]: 6.33% | Activity [11]: 27.9% | Activity [12]: 11.3% | Activity [13]: 6.78%
